Like-named read-outs stand apart in the source and are kept apart here.
Legend:
NCI-H292 cells [1] = assay: Number of living cells (MTS, CellTiter 96 AQueous One) after chemotherapy and/or poly(I:C); settings: for CI (combination index): agent in combination with poly(I:C), average CI; for nature of interaction with poly(I:C), from CI: combination with poly(I:C)
Experimental: NCI-H292 and NCI-H1703 are squamous cell lung cancer cell lines obtained from the American Type Culture Collection (ATCC). The cells are cultured in 100 mm-diameter dishes in complete RPMI 1640 medium with Glutabio (Eurobio Laboratories, Ulis, France) supplemented with 10% fetal calf serum (FCS) (Invitrogen, Cergy Pontoise, France) and containing 100 U/ml of penicillin (Invitrogen, Cergy Pontoise, France), 0.1 mg/ml of streptomycin (Invitrogen, Cergy Pontoise, France), 1 mM of sodium pyruvate (Invitrogen, Cergy Pontoise, France), 10 μM of HEPES (Jacques Boy Biotechnology Institute, Rheims, France). These cells are maintained at 37° C. in an atmosphere of 5% CO2.
Cells were inoculated in 96-well plates at a concentration of 5000 cells in 100 μl of complete medium per well. […] After 2 h of incubation at 37° C., the culture medium was aspirated and replaced with 100 μl of complete medium containing decreasing concentrations of poly(I:C) (100 μg/ml, 20 μg/ml, 4 μg/ml, 0.8 μg/ml); the cells were then cultured for 70 h. Each treatment condition was carried out in duplicate. The results are expressed as the relative number of viable cells in relation to the untreated control cultures.
The analysis was carried out using the CellTiter 96° AQueous One Solution Cell Proliferation Assay kit (Promega, Charbonnière, France) according to the manufacturer's instructions. Briefly, 20 μl of MTS was added to the culture medium of each well. The cells were placed in an incubator for 2 h at 37° C. Absorbance at 490 nm was analyzed using a spectrophotometer (Multiskan® EX; Thermo Fisher Scientific). A second measurement at 690 nm was made to exclude nonspecific absorbance. The baseline optical density (blank) represents the average of three wells containing the culture medium alone and was subtracted from the recorded values. Each value represents the average OD of the duplicates. The results are expressed as relative OD values in relation to the untreated control cultures.
The 50% inhibitory concentrations (IC50s), defined as the concentrations necessary to obtain 50% fewer cells than the untreated control after culture, were determined for each molecule used alone or in combination. The IC50s represent the averages of all the experiments performed. To mathematically determine the nature of the interaction between the two molecules, two complementary methods were used: calculation of the combination index (CI) (Chou et al.: Quantitative analysis of dose-effect relationships: the combined effects of multiple drugs or enzyme inhibitors, Adv Enzyme Regul 1984, 22:27-55) and construction of an isobologram (Steel et al.: Exploitable mechanisms in combined radiotherapy-chemotherapy: the concept of additivity, Int J Radiat Oncol Biol Phys 1979, 5:85-91).
The IC50 chemotherapy unit was homogenized to μg/ml. Together, all of these IC50s can be used to calculate combination indexes (CIs), defined by the equation (IC50(chemotherapy/poly(I:C))/IC50(chemotherapy))+(IC50(poly(I:C)/chemotherapy))/IC50(poly(I:C)))+(IC50(chemotherapy/poly(I:C))×IC50(poly(I:C)/chemotherapy))/(IC50(chemotherapy)×IC50(poly(I:C)))), where IC50 (chemotherapy) and IC50(poly(I:C)) respectively represent IC50s of chemotherapy and of poly(I:C) used alone, and IC50(chemotherapy/poly(I:C)) and IC50(poly(I:C)/chemotherapy) respectively represent IC50s of chemotherapy and poly(I:C) used in combination. The average of all the CIs is calculated in order to obtain the average CI that determines the nature of the interaction between the two molecules, according to its value: a CI of 0.1 to 0.9 indicates synergy; a CI of 0.9 to 1.1 indicates additivity; a CI of 1.1 to 10 indicates antagonism.
To build the isobolograms, the abscissa and the ordinate represent the IC50s of poly (I:C) and of the chemotherapeutic agent, respectively. The IC50 of poly(I:C) used alone is plotted on the x-axis and the IC50 of the chemotherapeutic agent used alone is plotted on the y-axis.

NCI-H292 cells [2] = assay: Annexin V-FITC/propidium iodide labeling, flow cytometry (apoptosis); format: cell-based, human; settings: NCIH-292; annexin V after 24 h; concentrations at IC50; FIG. 4
From the text: The duplexes of control small interfering RNA (siRNA; Dharmacon) and siRNA specific for caspase 8 and caspase 9 (Qiagen) used are as follows: 1) control: ON-TARGETplus siCONTROL Non-Targeting siRNA #3; caspase 8 sense 5′-r(GAG UCU GUG CCC AAA UCA A)dTdT-3′, caspase 8 antisense 5′-r(UUG AUU UGG GCA CAG ACU C)dTdT-3′; caspase 9 sense 5′-r(GAG UGG CUC CUG GUA CGU U)dTdT-3′, caspase 9 antisense 5′-r(AAC GUA CCA GGA GCC ACU C)dTdT-3′. The siRNAs were transfected by the HiPerFect (Qiagen) transfection reagent according to the manufacturer's recommendations. Briefly, NCI-H1703 or NCI-H292 cells are cultured in 100 mm dishes, dislodged by trypsin, placed in 24-well plates at a concentration of 50,000 cells in 400 μl of medium per well and incubated at 37° C. during preparation of the mixes. Mixes for each well of a 24-well plate are prepared as follows: the siRNA duplexes are diluted in 100 μl of serum-free and antibiotic-free culture medium, 3 μl of HiPerFect is added, and then the solution is vortexed and incubated for 5-10 min at room temperature. […] For these conditions, the effectiveness of caspase 8 and caspase 9 siRNAs in decreasing the level of expression of caspase 8 and caspase 9 proteins, respectively, were measured by western blot, and reaches roughly 85% for caspase 8 siRNA and 75% for caspase 9 siRNA. […]

NCI-H1703 cells [3] = assay: as above; format: cell-based, human; settings: for effect of 2 h exposure to agent before poly(I:C) on percentage of apoptotic cells: NCIH-1703, annexin V after 24 h, concentrations at IC50, FIG. 4
From the text: The duplexes of control small interfering RNA (siRNA; Dharmacon) and siRNA specific for caspase 8 and caspase 9 (Qiagen) used are as follows: 1) control: ON-TARGETplus siCONTROL Non-Targeting siRNA #3; caspase 8 sense 5′-r(GAG UCU GUG CCC AAA UCA A)dTdT-3′, caspase 8 antisense 5′-r(UUG AUU UGG GCA CAG ACU C)dTdT-3′; caspase 9 sense 5′-r(GAG UGG CUC CUG GUA CGU U)dTdT-3′, caspase 9 antisense 5′-r(AAC GUA CCA GGA GCC ACU C)dTdT-3′. The siRNAs were transfected by the HiPerFect (Qiagen) transfection reagent according to the manufacturer's recommendations. Briefly, NCI-H1703 or NCI-H292 cells are cultured in 100 mm dishes, dislodged by trypsin, placed in 24-well plates at a concentration of 50,000 cells in 400 μl of medium per well and incubated at 37° C. during preparation of the mixes. Mixes for each well of a 24-well plate are prepared as follows: the siRNA duplexes are diluted in 100 μl of serum-free and antibiotic-free culture medium, 3 μl of HiPerFect is added, and then the solution is vortexed and incubated for 5-10 min at room temperature. 100 μl of mix is then added drop by drop to the cells and the mixture is homogenized by shaking the plate. The culture medium is changed the following day. The final siRNA concentration is 5 nM and treatment with poly(I:C) begins 72 h after transfection. For these conditions, the effectiveness of caspase 8 and caspase 9 siRNAs in decreasing the level of expression of caspase 8 and caspase 9 proteins, respectively, were measured by western blot, and reaches roughly 85% for caspase 8 siRNA and 75% for caspase 9 siRNA.
In relation to the mechanism of reduction of the number of living cells, the percentage of cells labeled with annexin V after culture after treatment with poly(I:C) was determined by flow cytometry. […] Seventy-two hours after transfection of the control (sictrl), caspase (sicasp8), caspase 9 (sicasp9) or caspase 8+caspase 9 (sicasp8+9) siRNAs, NCI-H1703 cells are treated with 100 μg/ml of poly(I:C) for 24 h or are not treated. The percentage of annexin V-positive cells is measured by flow cytometry. The results presented are the average of three experiments carried out independently. Error Bar, ±SE.
Poly(I:C) induces apoptosis of NSCLC NCIH-1703 and NCIH-292 cell lines. To determine whether the greater reduction in the number of cells alive after treatment with the combination of poly(I:C) and cisplatin or etoposide resulted at least partially from an increase in apoptosis, the cells were labeled with annexin V after 24 h of culture as described in the “Materials and methods” section above.

NCI-H1703 cells [4] = assay: Number of living cells (MTS, CellTiter 96 AQueous One) after chemotherapy and/or poly(I:C); format: cell-based, human; settings: for CI (combination index) / IC50 / nature of interaction with poly(I:C), from CI / reduction of the number of living cells: NCI-H1703; for CI (combination index): agent in combination with poly(I:C), average CI; for nature of interaction with poly(I:C), from CI: combination with poly(I:C); for cytotoxicity at 4 µM: NCI-H1703, NCI-H1703, FIG. 1B, read-out: loss of viable cells; for reduction of the number of living cells: FIG. 1A
TLR3 = assay: Apoptosis induced by TLR3 ligands, with siRNA inhibition of receptors; format: cell-based
From the text: “Specific TLR3 ligand” refers to a ligand that is recognized only by the TLR3 membrane receptor, and not by intracellular receptors such as RIG-I, MDA-5 and PKR. Examples of such a ligand includes the ligand poly(A:U) or specific synthetic double-stranded RNA, in contrast with poly(I:C) whose activity is based not only on its interaction with TLR3 but also by intracellular receptors, whereas poly(A:U) acts specifically on TLR3.

NCI-H1703 cells [5] = assay: Viability of cells cultured 24 h with poly(I:C) and wortmannin; format: cell-based, human
Experimental: Similarly, a study was undertaken to determine the viability of cells of the NCI-H1703 human squamous cell lung cancer cell line cultured for 24 h in the presence of TLR3 ligand (poly(I:C), 100 μg/ml) at various concentrations (0 μM, 0.1 μM and 1.0 μM) of wortmannin, a specific PI3 kinase inhibitor.
In the same way, a study was undertaken to determine the percentage of cells of the NCI-H1703 human squamous cell lung cancer cell line in apoptosis (FACS analysis after labeling with annexin V-FITC/propidium iodide) after culture for 24 h in the presence of TLR3 ligand (poly(I:C), 100 μg/ml) with various concentrations (0 μM, 0.1 μM and 1.0 μM) of specific PI3 kinase inhibitor, wortmannin (WM). […] Moreover, the synergy is strong: with 1 μM wortmannin alone, 6% fewer living cells are observed after 24 h; with 100 μg/ml poly(I:C) alone, 26% fewer living cells are observed after 24 h; when both molecules are used in combination at these same concentrations, however, 71% fewer living cells are observed after 24 h.

[6] = NCI-H292, chemotherapeutic agent used alone, 2 h exposure, then 70 h culture
[7] = chemotherapeutic agent used alone, 2 h exposure, then 70 h culture, read-out: IC50
[8] = Homo sapiens, chemotherapeutic agent used alone, 2 h exposure, then 70 h culture, read-out: IC50

Compound | IC50 (NCI-H292 cells [1]; Homo sapiens, NCI-H292) | CI (combination index) (NCI-H292 cells [1]; NCI-H292) | nature of interaction with poly(I:C), from CI (NCI-H292 cells [1]; NCI-H292) | CI (combination index) (NCI-H1703 cells [4]) | nature of interaction with poly(I:C), from CI (NCI-H1703 cells [4]) | IC50 (NCI-H1703 cells [4]; [8]) | also measured
CC(=O)O[C@@]12CO[C@@H]1C[C@H](O)[C@@]1(C)C(=O)[C@H](O)C3=C(C)[C@@H](OC(=O)[C@H](O)[C@@H](NC(=O)OC(C)(C)C)c4ccccc4)C[C@@](O)([C@@H](OC(=O)c4ccccc4)[C@H]21)C3(C)C [Docetaxel, docetaxel] | 10.6 µM | 0.68 ± 0.2 | moderate synergy |  |  |  | 
N.N.[Cl][Pt][Cl] [Cisplatin, cisplatin] |  | 0.50 ± 0.08 | strong synergy | 0.62 ± 0.03 | strong synergy |  | effect of 2 h exposure to agent before poly(I:C) on percentage of apoptotic cells (NCI-H292 cells [2]): statistically significant only for the NCIH-292 cell line; effect of 2 h exposure to agent before poly(I:C) on percentage of apoptotic cells (NCI-H1703 cells [3]): increases the percentage of apoptotic cells; IC50 (NCI-H292 cells [1]; [6]): 3.4 µM; IC50 (NCI-H1703 cells [4]; [7]): 1.1 µM
Nc1ccn([C@@H]2O[C@H](CO)[C@@H](O)C2(F)F)c(=O)n1 [Gemcitabine, gemcitabine] | 0.6 µM | 1.3 ± 0.24 | antagonism | 1.0 ± 0.07 | additivity without synergy | 0.9 µM | 
polyadenylic-polyuridylic acid [poly(A:U)] |  |  |  |  |  |  | induction of apoptosis (TLR3; cells sensitive to poly(I:C)): triggers apoptosis
COc1cccc2c1C(=O)c1c(O)c3c(c(O)c1C2=O)C[C@@](O)(C(=O)CO)C[C@@H]3O[C@H]1C[C@H](N)[C@H](O)[C@H](C)O1 [Doxorubicin, doxorubicin] | 1.03 µM | 0.62 ± 0.08 | strong synergy | 0.72 ± 0.06 | strong synergy | 3.73 µM | 
COc1cc([C@@H]2c3cc4c(cc3[C@@H](O[C@@H]3O[C@@H]5CO[C@@H](C)O[C@H]5[C@H](O)[C@H]3O)[C@H]3COC(=O)[C@H]23)OCO4)cc(OC)c1O [Etoposide, etoposide] | 18.7 µM | 0.68 ± 0.11 | strong synergy | 0.59 ± 0.06 | strong synergy | 32.7 µM | effect of 2 h exposure to agent before poly(I:C) on percentage of apoptotic cells (NCI-H292 cells [2]): significant additive effect; effect of 2 h exposure to agent before poly(I:C) on percentage of apoptotic cells (NCI-H1703 cells [3]): significant additive effect; IC50 (NCI-H292 cells [1]; Homo sapiens, NCI-H292, read-out: concentration of etoposide in combination that decreases living cells by 50%): ~8 µM; cytotoxicity at 4 µM (NCI-H1703 cells [4]; Homo sapiens, etoposide 4 μM, then addition of 60 μg/ml poly(I:C)): ~60%; cytotoxicity at 4 µM (NCI-H1703 cells [4]; Homo sapiens, etoposide alone 4 μM): ~25%
COC[C@H]1OC(=O)c2coc3c2[C@@]1(C)C1=C(C3=O)[C@@H]2CCC(=O)[C@@]2(C)C[C@H]1OC(C)=O [wortmannin] |  |  |  |  |  |  | fewer living cells (NCI-H1703 cells [5]; 1 μM wortmannin + 100 μg/ml poly(I:C) in combination): 71%; fewer living cells (NCI-H1703 cells [5]; 1 μM wortmannin alone): 6%
polyinosinic-polycytidylic acid [poly(I:C)] |  |  |  |  |  |  | effect of siRNA inhibition of RIG-I, MDA-5 and PKR expression on poly(I:C) apoptotic activity (TLR3; siRNA against RIG-I, MDA-5, PKR): has no effect; effect of siRNA inhibition of TLR3 or TRIF on poly(I:C)-induced apoptosis (TLR3; siRNA against TLR3 or TRIF): inhibits apoptosis; fraction of cells in apoptosis (annexin V-positive) (NCI-H1703 cells [3]; NCI-H1703, 100 μg/ml poly(I:C), 24 h, 11% in control wells, FIG. 2): ⅓; percentage of apoptotic cells (annexin V-positive) (NCI-H1703 cells [3]; NCI-H1703, 100 μg/ml poly(I:C), 24 h, caspase 8 expression inhibited by siRNA): ~20%; effect of suppression of caspase 9 expression on poly(I:C)-induced apoptosis (NCI-H1703 cells [3]; NCI-H1703, 100 μg/ml poly(I:C), 24 h, caspase 9 siRNA): no significant effect; fewer living cells (NCI-H1703 cells [5]; 100 μg/ml poly(I:C) alone): 26%; IC50 (NCI-H292 cells [1]; NCI-H292, poly(I:C) used alone, 50% fewer cells than untreated control): 14.3 µg/mL; reduction of the number of living cells (NCI-H1703 cells [4]; poly(I:C) 4 μg/ml after pre-incubation for 2 h with 20 μM etoposide): ~70%; reduction of the number of living cells (NCI-H1703 cells [4]; poly(I:C) alone 4 μg/ml): ~35%; IC50 (NCI-H1703 cells [4]; poly(I:C) used alone, 50% fewer cells than untreated control): 19.9 µg/mL
O=C1[O][Pt]2([NH][C@@H]3CCCC[C@H]3[NH]2)[O]C1=O [Oxaliplatin, oxaliplatin] |  |  | strong synergy |  | strong synergy |  | IC50 (NCI-H292 cells [1]; [6]): 123 µM; IC50 (NCI-H1703 cells [4]; [7]): 170 µM
CC(=O)O[C@H]1C(=O)[C@@]2(C)[C@H]([C@H](OC(=O)c3ccccc3)[C@]3(O)C[C@H](OC(=O)[C@H](O)[C@@H](NC(=O)c4ccccc4)c4ccccc4)C(C)=C1C3(C)C)[C@]1(OC(C)=O)CO[C@@H]1C[C@@H]2O [Paclitaxel, paclitaxel] | 0.21 µM | 0.71 ± 0.0064 | moderate synergy | 0.83 ± 0.012 | moderate synergy | 0.12 µM | 
O=c1[nH]cc(F)c(=O)[nH]1 [5-Fluouracile, 5-fluorouracil] | 133 µM | 0.78 ± 0.09 | moderate synergy |  |  |  | 
